What all share (assay): No assay
Test [1] has as its target Mitogen-activated protein kinase 14 (Homo sapiens, UniProt Q16539).
Test [2] addresses Mitogen-activated protein kinase 11 (Homo sapiens, UniProt Q15759).
A further test concerns the target PIM2 (Homo sapiens, UniProt Q9P1W9).

Chain of Mitogen-activated protein kinase 14 (Q16539 whole entry): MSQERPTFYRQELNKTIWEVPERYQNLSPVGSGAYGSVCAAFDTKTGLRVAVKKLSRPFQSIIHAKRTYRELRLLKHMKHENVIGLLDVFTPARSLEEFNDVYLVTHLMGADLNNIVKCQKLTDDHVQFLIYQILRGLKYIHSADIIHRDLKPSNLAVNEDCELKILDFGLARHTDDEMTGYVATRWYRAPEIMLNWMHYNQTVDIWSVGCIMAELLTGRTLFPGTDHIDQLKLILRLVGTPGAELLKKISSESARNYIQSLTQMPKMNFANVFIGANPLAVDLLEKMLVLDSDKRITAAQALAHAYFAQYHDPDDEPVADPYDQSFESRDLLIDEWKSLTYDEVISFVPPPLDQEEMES
Chain of Mitogen-activated protein kinase 11 (Q15759 whole entry): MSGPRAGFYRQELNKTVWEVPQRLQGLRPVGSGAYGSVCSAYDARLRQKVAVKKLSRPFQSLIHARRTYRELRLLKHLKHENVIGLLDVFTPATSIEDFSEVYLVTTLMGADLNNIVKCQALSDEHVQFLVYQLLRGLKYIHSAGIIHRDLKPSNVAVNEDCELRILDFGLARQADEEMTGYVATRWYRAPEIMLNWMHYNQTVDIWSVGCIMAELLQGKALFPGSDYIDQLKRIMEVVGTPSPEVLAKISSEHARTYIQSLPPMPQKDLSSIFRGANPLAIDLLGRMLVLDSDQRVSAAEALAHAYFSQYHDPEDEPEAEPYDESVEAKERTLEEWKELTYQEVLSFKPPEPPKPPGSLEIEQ
Chain of PIM2 (Q9P1W9 whole entry): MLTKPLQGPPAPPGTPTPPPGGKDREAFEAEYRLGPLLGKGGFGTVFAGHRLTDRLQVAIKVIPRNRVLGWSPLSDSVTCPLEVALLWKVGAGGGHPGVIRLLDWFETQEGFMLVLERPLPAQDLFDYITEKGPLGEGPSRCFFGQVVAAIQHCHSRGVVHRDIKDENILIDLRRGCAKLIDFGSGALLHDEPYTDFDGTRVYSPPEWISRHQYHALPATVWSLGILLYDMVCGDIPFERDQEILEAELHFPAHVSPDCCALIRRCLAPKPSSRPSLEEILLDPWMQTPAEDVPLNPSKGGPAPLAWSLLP

Regarding `O=S(=O)(c1c(O)c(Cl)cc(Cl)c1Cl)c1c(O)c(Cl)cc(Cl)c1Cl` [HL-7], the IC50 in test [1] came out at 0.13 µM; in test [2], 0.55 µM.

`NC(=O)c1ccc(-c2nc(-c3ccc4c(c3)OCCO4)c(-c3ccccn3)[nH]2)cc1` [US11759530, Compound Table1.3] had an IC50 in test [1] of 12000 µM.

`O=c1c(O)c(-c2ccc(O)c(O)c2)oc2cc(O)c(O)c(O)c12` [US11759530, Compound Table1.8] had an IC50 at PIM2 of 3.45 µM.

Broadly, the IC50 is the concentration at which inhibition is half-maximal. A low value points to greater potency in that assay.
